Entries after “also recorded” stand apart in the source; their conditions may differ. Like-named read-outs stand apart in the source and are kept apart here.
Columns and labels:
[1] = system: GCB-DLBCL cell lines OCI-Ly7 and OCI-Ly1; test: Growth inhibition, GCB-DLBCL cell lines; assay type: cell-based, human; settings: increasing concentrations, single dose, 48 hr
Protocol: Endogenous MALT1 activity was evaluated by Western blotting for A20, BCL10 and CYLD; and NF-κB activation, by phospho-IκB-α and total IκB-α. Dependence on MALT1 proteolytic activity for proliferation was tested by 50[…]μM Z-VRPR-FMK treatment for 48 hr. […] The U2932 and HLY1 ABC-DLBCL cell lines harbor mutations in TAK1 and A20, which activate NF-κB signaling downstream of MALT1.
Cell proliferation was determined by ATP quantification using a luminescent method (CellTiter-Glo, Promega, Madison, Wis.) and Trypan blue dye-exclusion (Sigma, St. Louis, Mo.). Cell viability in drug-treated cells was normalized to their respective controls (fractional viability) and results are given as 1-fractional viability. […]
DLBCL cell lines were grown in exponential growth conditions during the 48 hr of treatment. Cell proliferation was determined by ATP quantification using a luminescent method (CellTiter-Glo, Promega, Madison, Wis.) and Trypan blue dye-exclusion (Sigma, St. Louis, Mo.). Luminescence was measured using the Synergy4 microplate reader (BioTek Instruments, Winooski, Vt.). Standard curves for each cell line were calculated by plotting the cell number (determined by the Trypan blue method) against their luminescence values and number of cells was calculated accordingly. […]

Caspase-9 = Caspase-9 (Homo sapiens, UniProt P55211); test: Caspase selectivity; assay type: biochemical
Chain of Caspase-9 (P55211 whole entry, species assumed): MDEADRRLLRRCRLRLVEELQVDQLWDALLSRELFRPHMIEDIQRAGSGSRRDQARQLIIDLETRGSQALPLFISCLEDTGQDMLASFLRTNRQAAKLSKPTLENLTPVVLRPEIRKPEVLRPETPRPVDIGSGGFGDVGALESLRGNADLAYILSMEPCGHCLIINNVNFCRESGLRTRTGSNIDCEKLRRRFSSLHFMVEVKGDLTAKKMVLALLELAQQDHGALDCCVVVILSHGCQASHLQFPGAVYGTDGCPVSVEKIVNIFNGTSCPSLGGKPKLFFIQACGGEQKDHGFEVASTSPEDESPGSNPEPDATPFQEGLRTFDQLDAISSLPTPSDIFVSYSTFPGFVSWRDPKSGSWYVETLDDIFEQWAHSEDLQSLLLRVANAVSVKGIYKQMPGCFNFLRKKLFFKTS

[2] = system: primary human non-GCB DLBCL cells; test: Primary human DLBCL cells ex vivo, non-GCB cases, Trypan blue; assay type: cell-based; settings: 0.8 μM, 48 hr
Protocol: After 48 hr exposure, cell number and viability were determined using Trypan blue.
Patient de-identified tissues were obtained in accordance with the guidelines and approval of the Weill Cornell Medical College Review Board. Patient samples were processed as previously described (Cerchietti et al., 2010). Briefly, single cell suspensions from lymph node biopsies were obtained by physical disruption of tissues followed by cell density gradient separation (Fico/Lite LymphoH, Atlanta Biologicals, Lawrenceville, Ga.). Cell number and viability were determined by Trypan blue exclusion. Primary DLBCL cells were cultured in 96-well plates. Cells were grown in advanced RPMI medium with 20% FBS supplemented with antibiotics for 48 hours. […] After 48 hr of exposure, viability was determined by using Trypan blue (Sigma). All samples were normalized to their own replicate control. Statistical significance was calculated using paired T-test.

NF-κB reporter activity = test: NF-κB reporter assay in HBL-1 cells; assay type: cell-based, human
Text: Antigen receptor-mediated NF-κB signaling partly depends on MALT1 activity (Ruefli-Brasse et al., 2003; Ruland et al., 2003). […] First, 293T cells were transfected with the NF-κB reporter vector (NF-κB)5-luc2CP-pGL4 (harboring 5 copies of the NF-κB consensus response element and a destabilized Firefly luciferase) and TK-pRL control together with plasmids expressing BCL10 and either MALT1^WT or MALT1^C464A. […] HBL-1 was transfected with the reporter construct (NF-κB)5-luc2CP-pGL4 and TK-pRL control.
Reporter assays were performed in 293T cells seeded at a density of 2×10^5 cells per well of a 12-well dish. 100 ng of (NF-κB)5-Luc2CP-pGL4 and 10 ng of TK-Renilla internal control plasmid were cotransfected along with 25 ng of the indicated plasmids (MIGR1-MALT1^WT or MIGR1-MALT1^C464A and pcDNA4-Flag-Bcl10) using Lipofectamine 2000 (Invitrogen). Lysates were submitted to dual luciferase assays following manufacturer's protocol (Promega). In HBL-1, 5 μg of (NF-κB)5-Luc2CP-pGL4 and 50 ng of TK-Renilla internal control plasmid per 5×10^6 cells were cotransfected using nucleofection (Amaxa, Lonza, Basel, Switzerland). Forty-eight hours after transfection, cells were plated at a density of 5×10^4 cells per well of a 24-well plate and treated as indicated. Lysates were submitted to dual luciferase assays following manufacturer's protocol (Promega).

LZ-MALT1 = target: T1, LZ-MALT1 (Homo sapiens, UniProt Q9UDY8); test: Dose-effect and time-course of MALT1 inhibition (pre-incubation, then Ac-LRSR-AMC); assay type: biochemical; settings: pre-incubation 5 to 80 minutes
T1 construct: His tag (N); made in house; host or cells: E. coli
T1 sequence (Q9UDY8 with tags, fused parts or gaps limits assumed): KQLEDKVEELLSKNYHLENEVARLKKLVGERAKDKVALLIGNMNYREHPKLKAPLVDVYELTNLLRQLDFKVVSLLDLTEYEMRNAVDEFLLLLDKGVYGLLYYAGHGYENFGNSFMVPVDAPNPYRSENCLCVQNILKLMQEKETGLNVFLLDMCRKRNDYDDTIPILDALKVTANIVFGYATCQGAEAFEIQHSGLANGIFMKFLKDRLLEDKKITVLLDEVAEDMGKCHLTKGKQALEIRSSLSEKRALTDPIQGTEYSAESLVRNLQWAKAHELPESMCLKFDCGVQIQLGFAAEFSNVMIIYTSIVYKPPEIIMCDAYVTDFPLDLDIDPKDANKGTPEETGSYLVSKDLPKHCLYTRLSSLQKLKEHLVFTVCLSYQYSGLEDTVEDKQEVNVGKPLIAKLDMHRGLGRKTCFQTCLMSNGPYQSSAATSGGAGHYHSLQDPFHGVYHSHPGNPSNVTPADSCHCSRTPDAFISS
Protocol: The reactions were monitored in a SpectraMax M5 plate reader (Molecular Devices, Sunnyvale, Calif. USA) with excitation/emission wavelength at 360/465 nm and 20 seconds intervals. Normalized percentage of inhibition was calculated with the following formula: (M(T2-T1)−N(T2-T1))/(P(T2-T1)−N(T2-T1))*100, where M(T2-T1) is the difference signal of compound at time point 200s and 0s, N(T2-T1) is the difference signal of negative control buffer only, P(T2-T1) is the difference signal of positive control Z-VRPR-FMK.

[3] = system: cleavage of A20, BCL10 and RELB; test: Cleavage of MALT1 substrates with MG-132 in HBL-1 and TMD8 cell lines, Western blot; assay type: cell-based, human; settings: 2 μM for 30 minutes, then 5 μM MG-132 for one or two hour
Protocol: As these proteins are directed to proteasomal degradation after cleavage (Coornaert et al., 2008; Hailfinger et al., 2011; Rebeaud et al., 2008), we used the proteasome inhibitor MG-132 to facilitate visualization of cleavage products (FIG. 4A).
Equal amounts of total protein (20-75 μg) were separated on sodium dodecyl sulfate-polyacrylamide gel electrophoresis (SDS-PAGE), and electrotransferred onto nitrocellulose membranes. Membranes were incubated with primary antibodies (MALT1, BCL-10, CYLD from Santa Cruz Biotechnologies, Santa Cruz, Calif.; A20 from eBioscience, San Diego, Calif.; phospho-IκB-α, IκB-α, c-REL, RELB from Cell Signaling, Danvers, Mass. and α-Tubulin from Sigma), followed by secondary antibodies conjugated to horseradish peroxidase, which were detected by chemiluminescence (Pierce, Thermo Scientific, Rockford, Ill.).

HBL-1 cells = test: Growth inhibition, ATP-based luminescent assay; assay type: cell-based; settings: Homo sapiens, HBL1
Protocol: (§1) Cell proliferation was determined by ATP quantification using a luminescent method (CellTiter-Glo, Promega, Madison, Wis.) and Trypan blue dye-exclusion (Sigma, St. Louis, Mo.). Cell viability in drug-treated cells was normalized to their respective controls (fractional viability) and results are given as 1-fractional viability. CompuSyn software (Biosoft, Cambridge, UK) was used to determine drug concentrations inhibiting fractional growth compared to controls.
(§2) DLBCL cell lines were grown in exponential growth conditions during the 48 hr of treatment. Cell proliferation was determined by ATP quantification using a luminescent method (CellTiter-Glo, Promega, Madison, Wis.) and Trypan blue dye-exclusion (Sigma, St. Louis, Mo.). Luminescence was measured using the Synergy4 microplate reader (BioTek Instruments, Winooski, Vt.). Standard curves for each cell line were calculated by plotting the cell number (determined by the Trypan blue method) against their luminescence values and number of cells was calculated accordingly. Cell viability in drug-treated cells was normalized to their respective controls (fractional viability) and results are given as 1-fractional viability. CompuSyn software (Biosoft, Cambridge, UK) was used to determine the drug concentration that inhibits the growth of cell lines by […]. Experiments were performed in triplicate.

OCI-Ly10 cells = test: Growth inhibition, ATP-based luminescent assay; assay type: cell-based; settings: Homo sapiens; OCI-Ly10, single dose, 48 hr
Protocol: as §1, §2

OCI-Ly3 cells = test: Growth inhibition, ATP-based luminescent assay; assay type: cell-based; settings: Homo sapiens; OCI-Ly3, single dose, 48 hr
Protocol: as §1, §2

COCCOc1nc(-c2ccc(Cl)c(Cl)c2)n(-c2ccc(NC(=O)CCl)cc2)n1 [MI-2]
growth inhibition [1]: resistant | activity against Caspase-9 (Caspase-9): little activity | response of cell number and viability [2]: two of the non-GCB cases responded; also recorded: One of the non-GCB did not respond | reduction in NF-κB reporter activity (NF-κB reporter activity; HBL-1, 8 hr): 20% | reduction in NF-κB reporter activity (NF-κB reporter activity; HBL-1, 24 hr): 50% | kind of inhibition (time dependence) (LZ-MALT1): covalent and irreversible inhibition | percent MALT1 inhibition reached (LZ-MALT1): ~100% | cleaved forms of A20, BCL10 and RELB [3]: diminished the abundance of cleaved forms and/or increased the abundance of full-length proteins | GI50 (HBL-1 cells; HBL-1, single dose, 48 hr, read-out: GI50): 200 nM | GI50 (HBL-1 cells; HBL-1, read-out: GI50 concentration): 200 nM | GI50 (OCI-Ly10 cells): 400 nM | GI50 (OCI-Ly3 cells): 400 nM
